“Also recorded” adds a separate entry of the source.
Assays:
Influenza = test: Anti-Influenza antibody generation in BALB/c mice following immunization with the Fluviral vaccine (ELISA); format: in vivo; conditions: intramuscular
Description: To test the adjuvant potential of LTB4, groups of 10 BALB/c mice were immunized once by intramuscular injection with 5 μl of the commercial “Fluviral” vaccine preparation in combination with saline or 1 ng of LTB4. Fourteen days following immunization, mice were bled and sera analyzed for specific anti-Influenza IgG antibodies by ELISA.
Adult (6-8 weeks) BALB/c female mice were immunized by intramuscular injection with 5 μl of the commercial Influenza (Fluviral) vaccine in combination or not with 1 ng of LIB4. Fourteen days later, mice were bled by cardiac puncture and sera obtained. Anti-Influenza antibodies were quantitated by enzyme-linked immunosorbent assay (ELISA). Wells of a 96-well plate were coated with the Fluvial vaccine preparation ( 1/100 dilution) in 0.1 M carbonate buffer (pH 9.0) by overnight incubation at 4° C. Wells were washed with Tris-buffered saline with 0.1% Tween-20 (TBS-T) followed by the addition of 100 μl of increasing dilutions of the sera to be tested. […] After 30 minutes, the absorbance (405 nm) from each well was recorded using an ELISA plate reader. The values, expressed as optical density (OD), were plotted against the reciprocal of serum dilution.

[1] = test system: mycobacterium tuberculosis; format: in vivo, BALB/c mice; conditions: 1-10 ng LTB4 with BCG vaccine, intradermal on days 0, 24, 68 and 145; sera at day 160
murine CMV [2] = test: Total anti-CMV antibodies following acute CMV infection in BALB/c mice (ELISA); format: in vivo; conditions: LTB4 5 μg/kg i.p. 3 times a week for 12 weeks from day 5 post-infection
Description: Our next series of experiments were designed to test the potential of LTB4 to modulate antibody response during an acute CMV infection. BALB/c mice were infected by intraperitoneal (i.p.) injection with 10,000 pfu of murine CMV. On day 5 post-infection, mice (n=10) received saline by i.p. injection or LTB4 (5 μg/kg) (n=9) by i.p. injection 3 times a week for 12 weeks. At that time, sera was taken from each mouse and tested for anti-CMV specific antibodies.
Adult (6-8 weeks) female BALB/c mice were infected by intraperitoneal (I.P.) injection with 1×10^4 pfa of murine CMV. Starting on the fifth day post-infection, mice were injected with saline or LTB4 (5 μg/kg) by I.P. injection at a frequency of three times a week for 12 weeks. Mice were then bled and sacrificed. Total anti-CMV antibodies from each mouse were quantified by ELISA. ELISA plates were coated with a lysates from CMV-infected fibroblasts as the source of CMV antigens. One μg of protein lysates were added to each well and incubated-overnight at 4° C. After several washes with TBS-T, non-specific sites were blocked by the addition of saline containing 10% fetal bovine serum for one hour at room temperature. […] After 30 minutes, the absorbance (405 nm) from each well was recorded using an ELISA plate reader. The values, expressed as optical density (OD), were plotted against the reciprocal of serum dilution. […]

murine CMV [3] = test: Neutralizing CMV antibodies in sera of CMV-infected mice (plaque reduction on mouse embryonic fibroblast); format: in vivo, BALB/c mice; conditions: the 7 positive sera of LTB4 treated mice; 1/100 dilution; 175 pfu murine CMV
Description: Lastly, the sera from each mouse infected with CMV and treated with saline or LTB4 (see above) were analyzed for neutralizing antibodies. Briefly, a 1/100 dilution of individual serum was incubated with 175 pfu of murine CMV for 1 hour on ice. Samples (sera-virus) were then added to mouse embryonic fibroblast and incubated at 37° C. for 2 hour. Unadsorbed viruses were removed and cells were overlaid with methyl cellulose and incubated for 4 days at 37° C. in a humidified atmosphere with 5% CO2. At this time cells were fixed, colored with violet crystal and the number of plaques (CMV infected foci) counted. […] Uninfected mice had no neutralizing antibodies against CMV, as expected. […] We next compared the neutralizing activity of sera that tested positive for CMV neutralization. The 2 sera of infected mice that received saline were able to reduce, in average, CMV infectivity by 24%. In contrast, the 7 sera of LTB4 treated-mice were found capable of reducing CMV infectivity by 45%, almost twice the activity of control mice.
The serum from each mouse, described above, were tested for their CMV neutralizing activity. Briefly, a 1/100 dilution of individual serum was incubated with 175 pfu of murine CMV for 1 hour on ice. […] At this time cells were fixed, colored with violet crystal and the number of plaques (CMV infected foci) counted. […]

B lymphocytes = conditions: cited from earlier work

## CCCCC/C=C\C[C@@H](O)/C=C/C=C/C=C\[C@@H](O)CCCC(=O)O [LTB4, Leukotriene B4]
Influenza; 1 ng LTB4 with 5 μl Fluviral vaccine, once, sera at day 14, p<0.05 in all three dilutions
  anti-Influenza IgG antibody response (ELISA OD) versus vaccine + saline: greater anti-Influenza antibody response; also recorded: significantly higher anti-Influenza antibody response
Influenza; with 5 μl Fluviral vaccine
  optimal dose of LTB4 as adjuvant: 1 ng
[1]
  anti-BCG antibodies (ELISA OD) versus BCG + saline: higher levels of anti-BCG antibodies; also recorded: greater reactivity against mycobacterium antigens
Murine CMV [2]
  total anti-CMV antibodies (ELISA OD) versus saline-treated group: more anti-CMV antibodies
Murine CMV [3]
  reduction of CMV infectivity by sera positive for CMV neutralization (average): 45%
B lymphocytes; LTB4 by itself, in absence of exogenous cytokines or stimuli, in vitro
  effect on B cell proliferation or immunoglobulin synthesis (IgG or IgM): no effects
B lymphocytes; conflicting paper (Rola-Plecszczynski 1982)
  effect on synthesis of immunoglobulin from B lymphocytes: inhibitory effects

Source: patent publication US7914800B2, “LTB4 as vaccine adjuvant” (priority 2001, dated 2011)
